Measured values taken from patent US20210290784A1, “POSITRON EMISSION TOMOGRAPHY (PET) RADIOTRACERS FOR IMAGING MACROPHAGE COLONY-STIMULATING FACTOR 1 RECEPTOR (CSF1R) IN NEUROINFLAMMATION” (The Johns Hopkins University, priority 2018, published 2021).
Entries after “also recorded” stand apart in the source; their conditions may differ.

How the values were obtained:
CSF1R [1] = assay: Brain uptake in CSF1R knock-out vs control mice; assay type: in vivo; conditions: whole brain, 45 min
Description: B6.Cg-Csf1rtml.2Jwp/J (CSF1R knock-out, KO) mice (21-23 g; age=four to eight weeks; Jackson Laboratories, Bar Harbor, Me.) (5 animals) and age-matched C57BL/6J controls (23-27 g) (5 animals) were used. […] The outcome variables were calculated as % SUV.

[2] = Mouse plasma and brain radiometabolite analysis; assay type: in vivo, mice
Description: The animals were injected IV with 37 MBq (1 mCi) [^11C]CPPC [specific radioactivity=673 GBq/μmol (18.2 Ci/μmol)] and sacrificed by cervical dislocation at 10 min (3 animals) and 30 min (3 animals) after the radiotracer injection. […] Radiometabolites of [^11C]CPPC in the mouse plasma and brain were analyzed using a general HPLC method described above for baboon. Before the HPLC analysis the mouse brain was homogenized in 2 mL of mixture 50% acetonitrile: 50% phosphate buffer (Et3N, H3PO4, pH 7.2). The homogenates were centrifuged (14000 g for 5 min) and supernatants filtered using 0.2 micron filter and filtrate was analyzed by radio-HPLC with phenomenex Gemini C18, 10μ, 4.6×250 mm and 2 mL/min isocratic elution and 50% acetonitrile-50% aqueous triethylamine, c=0.06 M and pH=7.2 as mobile phase. […] The radiometabolites poorly penetrate the blood-brain barrier and their presence in the brain is low (Table 4)

CSF1R [3] = biological target: T1, CSF1R (Mus musculus, UniProt P09581); assay: Blocking study with unlabeled CPPC in control mice; assay type: in vivo; parameters: from tissue; host or cells: brain of living CD-1, C57BL/6J, transgenic APP (AD model), EAE and CSF1R KO mice
T1 sequence (P09581 20-977): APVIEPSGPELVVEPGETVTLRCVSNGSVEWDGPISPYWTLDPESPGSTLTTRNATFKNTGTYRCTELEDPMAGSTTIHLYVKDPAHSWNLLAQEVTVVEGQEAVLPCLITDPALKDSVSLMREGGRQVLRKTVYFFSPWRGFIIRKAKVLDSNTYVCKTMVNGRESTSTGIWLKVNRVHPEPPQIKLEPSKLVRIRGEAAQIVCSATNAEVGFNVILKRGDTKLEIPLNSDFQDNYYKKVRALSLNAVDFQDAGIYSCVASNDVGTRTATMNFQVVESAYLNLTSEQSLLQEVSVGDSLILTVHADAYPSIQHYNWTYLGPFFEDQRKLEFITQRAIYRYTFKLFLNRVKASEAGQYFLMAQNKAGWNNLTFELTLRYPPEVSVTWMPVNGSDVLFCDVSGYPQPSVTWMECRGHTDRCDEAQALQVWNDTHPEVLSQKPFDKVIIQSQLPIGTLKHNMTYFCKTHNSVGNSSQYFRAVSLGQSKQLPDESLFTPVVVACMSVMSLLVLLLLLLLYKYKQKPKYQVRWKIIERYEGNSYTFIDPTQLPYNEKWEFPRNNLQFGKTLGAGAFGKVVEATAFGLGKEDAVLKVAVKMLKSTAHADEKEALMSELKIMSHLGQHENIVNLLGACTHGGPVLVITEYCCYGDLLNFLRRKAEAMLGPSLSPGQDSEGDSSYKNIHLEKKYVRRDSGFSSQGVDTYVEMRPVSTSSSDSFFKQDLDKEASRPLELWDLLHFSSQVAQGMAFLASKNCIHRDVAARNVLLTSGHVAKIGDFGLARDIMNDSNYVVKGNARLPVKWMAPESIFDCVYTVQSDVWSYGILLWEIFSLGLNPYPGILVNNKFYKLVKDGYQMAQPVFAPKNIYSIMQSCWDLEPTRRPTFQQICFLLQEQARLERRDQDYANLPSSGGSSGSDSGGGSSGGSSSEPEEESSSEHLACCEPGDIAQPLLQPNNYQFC
Description: Mice (male CD1 or C57BL/6J) were killed by cervical dislocation at 45 min following i.v. injection of [^11C]CPPC. The blockers, CPPC (0.3, 0.6, 1.2, 3.0, 10, and 20 mg/kg), or CSF1R inhibitor, compound 8 (Illig C R, et al. (2008)) (2 mg/kg), were given i.p., 5 min before [^11C]CPPC, whereas baseline animals received vehicle. […] Regional brain uptake of [^11C]CPPC at baseline was compared with that with blocking.
Animals were sacrificed by cervical dislocation at 45 min following injection of 5.1 MBq (0.14 mCi) [^11C]CPPC [specific radioactivity=511 GBq/μmol (13.8 Ci/μmol)] in 0.2 mL saline into a lateral tail vein. […] The percentage of standardized uptake value (% SUV) was calculated.
Animals were sacrificed by cervical dislocation at 45 min following injection of 5.0 MBq (0.135 mCi) [^11C]CPPC [specific radioactivity=390 GBq/μmol (10.5 Ci/μmol)] in 0.2 mL saline into a lateral tail vein. […] The outcome variables for the cortex are presented without blood correction as % SUV (FIG. 11A) and with blood correction as SUVR (FIG. 11B).

CSF1R [4] = assay: Baboon PET (baseline, LPS, LPS-plus-blocking)
CSF1R [5] = biological target: T1, CSF1R; assay: Brain uptake in transgenic mouse model of AD; assay type: in vivo, mice; parameters: from tissue; host or cells: brain of living CD-1, C57BL/6J, transgenic APP (AD model), EAE and CSF1R KO mice; conditions: all brain regions, 45 min
From the text: Mouse model of Alzheimer's disease-related amyloidosis overexpressed Amyloid Precursor Protein (APP) with Swedish and Indiana mutations was used. The transgenic APP had tetracycline transactivator (tTa)-sensitive promoter that was activated by over-expressing tTa driven by CaMKII promoter (5). Due to such combination of transgenes, the overexpression of transgenic APP was observed only in principal neurons of the forebrain. […] The Alzheimer's male mice (AD) and their sex-matched control littermates were 16 months of age at the time of the study. […] The outcome variables were calculated as % SUV.

[11CH3]N1CCN(c2ccc(NC(=O)c3ccc(C#N)o3)c(N3CCCCC3)c2)CC1 [[^11C]CPPC, 5-cyano-N-(4-(4-[^11C]methylpiperazin-1-yl)-2-(piperidin-1-yl)phenyl)furan-2-carboxamide]
brain uptake (% SUV) in CSF1R KO mouse brain vs. controls (CSF1R [1]): comparable
Brain Parent [^11C]CPPC, % ([2]; 10 min): 96.6 ± 0.1%
Plasma Parent [^11C]CPPC, % ([2]; 10 min): 70.2 ± 2.2%
Brain Parent [^11C]CPPC, % ([2]; 30 min): 95.1 ± 1.6%
Plasma Parent [^11C]CPPC, % ([2]; 30 min): 39.7 ± 1.3%
blood corrected cortex SUVR, blocking vs baseline (CSF1R [3]; CD1 mice, unlabeled CPPC 0.6 and 3 mg/kg, P=0.05, n=3): significantly lower
cortex % SUV, blocking vs baseline, without blood correction (CSF1R [3]; CD1 mice, unlabeled CPPC 0.6 and 3 mg/kg, P>0.05, n=3): No significant difference
reduction of radioactivity (SUVR, blood-corrected) with blocking (CSF1R [3]; control CD1 mice, cortex, unlabeled CPPC 0.6 and 3 mg/kg IP, 45 min): 20%
% SUV brain uptake with blocking, low doses of unlabeled CPPC (CSF1R [3]; control CD1 mice, dose escalation, 0.6-3 mg/kg, 45 min, no blood correction): no reduction; also recorded: failed to show a significant reduction; also recorded: insignificant blockade
% SUV brain uptake with blocking, high doses of unlabeled CPPC (CSF1R [3]; control CD1 mice, dose escalation, 10-20 mg/kg, 45 min, no blood correction): gradual trend toward increased uptake; also recorded: insignificant gradual increase of uptake
parametric VT (CSF1R [4]; LPS-treated baboon (0.05 mg/kg i.v., 4 h before radiotracer)): 35-52
K1 value, LPS-treated vs baseline (CSF1R [4]; baboon): changed only slightly
decrease of metabolite-corrected radioactivity in plasma, LPS-treated vs. baseline (CSF1R [4]; baboon): ~50%
parametric VT (CSF1R [4]; baboon baseline): 15-25
peak SUV, brain (CSF1R [4]; baboon baseline, 20 min postinjection): 2.5-4.0
increase of distribution volume (VT) values in all brain regions of LPS-treated animal (CSF1R [4]; baboon, LPS 0.05 mg/kg i.v.): More than a twofold increase
VT in LPS-plus-blocking study (CSF1R [4]; baboon, blocker CPPC 1 mg/kg s.c. 1.5 h before radiotracer): reduction to the baseline level; also recorded: return to the baseline level
uptake in brain regions of AD mice vs control (CSF1R [5]): significantly greater; also recorded: significantly higher
